Test results taken from the supplement of paper PMC5908809.

Assays:
[1] = tested on: normal NK cells expanded with K562-aAPC; assay: percent inhibition of viability; higher = more inhibition; details: 72 h, IL-2 2.5 ng/mL
Method: (§1)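 Drug sensitivity and resistance testing on K562-aAPC-expanded normal NK cells: 5 concentrations (10-fold steps over a 10,000-fold range), 72 h at 37 °C, viability by CellTiter-Glo normalised to DMSO and benzethonium chloride controls; DSS from the fitted curve.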

DERL-7 (IL-2 2.5 ng/mL) [2] = assay: as above; details: 72 h
IMC-1 (IL-2 20 ng/mL) [3] = assay: as above; details: 72 h
KAI3 (IL-2 2.5 ng/mL) [4] = assay: as above; details: 72 h
KHYG-1 (IL-2 2.5 ng/mL) [5] = assay: as above; details: 72 h
NK-92 (IL-2 2.5 ng/mL) [6] = assay: as above; details: 72 h
NK-YS (IL-2 2.5 ng/mL) [7] = assay: as above; details: 72 h
NKL (IL-2 2.5 ng/mL) [8] = assay: as above; details: 72 h
SNK-6 (IL-2 2.5 ng/mL) [9] = assay: as above; details: 72 h
YT (IL-2 2.5 ng/mL) [10] = assay: as above; details: 72 h
[11] = tested on: normal primary NK cells, pool 1 (3 donors) (IL-2 2.5 ng/mL); assay: as above; details: 72 h
[12] = tested on: normal primary NK cells, pool 1 (3 donors), resting (IL-2 0 ng/mL); assay: as above; details: 72 h
[13] = tested on: normal primary NK cells, pool 2 (3 donors) (IL-2 2.5 ng/mL); assay: as above; details: 72 h
[14] = tested on: normal primary NK cells, pool 3 (3 donors) (IL-2 2.5 ng/mL); assay: as above; details: 72 h
[15] = tested on: normal NK cells expanded with K562-aAPC; assay: drug sensitivity score (DSS) (DSS units); higher = more sensitive; extreme values may be limits of the assay; details: 72 h; IL-2 2.5 ng/mL
Method: as §1

DERL-7 (IL-2 2.5 ng/mL) [16] = assay: as above; details: 72 h
IMC-1 (IL-2 20 ng/mL) [17] = assay: as above; details: 72 h
KAI3 (IL-2 2.5 ng/mL) [18] = assay: as above; details: 72 h
KHYG-1 (IL-2 2.5 ng/mL) [19] = assay: as above; details: 72 h
NK-92 (IL-2 2.5 ng/mL) [20] = assay: as above; details: 72 h
NK-YS (IL-2 2.5 ng/mL) [21] = assay: as above; details: 72 h
NKL (IL-2 2.5 ng/mL) [22] = assay: as above; details: 72 h
SNK-6 (IL-2 2.5 ng/mL) [23] = assay: as above; details: 72 h
YT (IL-2 2.5 ng/mL) [24] = assay: as above; details: 72 h
[25] = tested on: normal primary NK cells, pool 1 (3 donors) (IL-2 2.5 ng/mL); assay: as above; details: 72 h
[26] = tested on: normal primary NK cells, pool 1 (3 donors), resting (IL-2 0 ng/mL); assay: as above; details: 72 h
[27] = tested on: normal primary NK cells, pool 2 (3 donors) (IL-2 2.5 ng/mL); assay: as above; details: 72 h
[28] = tested on: normal primary NK cells, pool 3 (3 donors) (IL-2 2.5 ng/mL); assay: as above; details: 72 h

CCn1c(-c2nonc2N)nc2cnc(Oc3cccc(NC(=O)c4ccc(OCCN5CCOCC5)cc4)c3)cc21 (max concentration tested 10000 nM)
percent inhibition of viability [%]
Details | 1 nM | 10 nM | 100 nM | 1000 nM | 10000 nM
DERL-7 (IL-2 2.5 ng/mL) [2] | 1.35 | 15.3 | 42.9 | 62.8 | 72.7
IMC-1 (IL-2 20 ng/mL) [3] | -0.83 | -2.25 | 6.95 | 14.1 | 26.8
KAI3 (IL-2 2.5 ng/mL) [4] | -3.04 | -8.72 | 11.1 | 37.2 | 95
KHYG-1 (IL-2 2.5 ng/mL) [5] | 1.19 | 3.45 | 16.6 | 24.8 | 68.2
NK-92 (IL-2 2.5 ng/mL) [6] | -3.47 | 11.4 | 34.4 | 37.1 | 74
NK-YS (IL-2 2.5 ng/mL) [7] | -0.26 | -0.53 | 30.8 | 48.4 | 41.9
NKL (IL-2 2.5 ng/mL) [8] | -13.6 | -19.1 | -8.42 | 24 | 52.5
SNK-6 (IL-2 2.5 ng/mL) [9] | -9.46 | 8.6 | 49.6 | 70.1 | 55.5
YT (IL-2 2.5 ng/mL) [10] | 1.84 | -0.78 | 1.36 | 15.7 | 28.5
[1] | 7.28 | -0.78 | -0.39 | 9.1 | 43.7
[11] | -7.22 | 2.09 | 6.8 | 18.7 | 70
[12] | -4.42 | -15.8 | 7.47 | 11.9 | 54.7
[13] | -8.71 | -2.3 | 9.01 | 9.21 | 60.8
[14] | -9.45 | -1.75 | 4.61 | 14.9 | 64.5

Details | drug sensitivity score
DERL-7 (IL-2 2.5 ng/mL) [16] | 18.2
IMC-1 (IL-2 20 ng/mL) [17] | 2.4
KAI3 (IL-2 2.5 ng/mL) [18] | 9.52
KHYG-1 (IL-2 2.5 ng/mL) [19] | 6.96
NK-92 (IL-2 2.5 ng/mL) [20] | 12.4
NK-YS (IL-2 2.5 ng/mL) [21] | 12.6
NKL (IL-2 2.5 ng/mL) [22] | 5.93
SNK-6 (IL-2 2.5 ng/mL) [23] | 19.4
YT (IL-2 2.5 ng/mL) [24] | 2.8
[15] | 3.71
[25] | 6.54
[26] | 4.87
[27] | 4.86
[28] | 5.91

CN(C)c1nc(N(C)C)nc(N(C)C)n1 [Altretamine] (max concentration tested 10000 nM)
percent inhibition of viability [%]
Details | 1 nM | 10 nM | 100 nM | 1000 nM | 10000 nM
DERL-7 (IL-2 2.5 ng/mL) [2] | -4.53 | -2.77 | 0.97 | 2.22 | 0.81
IMC-1 (IL-2 20 ng/mL) [3] | -2.71 | 0.47 | -4.67 | -2.63 | -6.93
KAI3 (IL-2 2.5 ng/mL) [4] | 3.52 | 10.7 | 11.4 | 24.1 | 24.6
KHYG-1 (IL-2 2.5 ng/mL) [5] | -7.38 | -7.34 | -6.09 | -2.99 | -6.61
NK-92 (IL-2 2.5 ng/mL) [6] | -14.2 | -12.6 | -6.86 | -1.41 | -0.2
NK-YS (IL-2 2.5 ng/mL) [7] | 1.59 | -1.58 | 1.2 | 11.7 | 9.31
NKL (IL-2 2.5 ng/mL) [8] | -10 | -9.91 | -10.4 | 1.45 | 1.87
SNK-6 (IL-2 2.5 ng/mL) [9] | -4.42 | -8.89 | -0.39 | 6.56 | -2.57
YT (IL-2 2.5 ng/mL) [10] | -3.72 | -5.67 | -6.12 | -0.77 | -8.31
[1] | -2.99 | -3.76 | 0.47 | -2.02 | -2.72
[11] | -5.08 | -6.48 | -0.04 | -1.59 | 3.54
[12] | -0.78 | -0.59 | 9.13 | 16.1 | 26
[13] | -3.77 | -3.94 | -0.13 | 0 | 1.61
[14] | -9.05 | -7.82 | -1.85 | -3.99 | 3.69

Details | drug sensitivity score
DERL-7 (IL-2 2.5 ng/mL) [16] | 0
IMC-1 (IL-2 20 ng/mL) [17] | 0
KAI3 (IL-2 2.5 ng/mL) [18] | 4.61
KHYG-1 (IL-2 2.5 ng/mL) [19] | 0
NK-92 (IL-2 2.5 ng/mL) [20] | 0
NK-YS (IL-2 2.5 ng/mL) [21] | 0.51
NKL (IL-2 2.5 ng/mL) [22] | 0
SNK-6 (IL-2 2.5 ng/mL) [23] | 0
YT (IL-2 2.5 ng/mL) [24] | 0
[15] | 0
[25] | 0
[26] | 2.84
[27] | 0
[28] | 0

CNC(=O)c1ccc(N2C(=S)N(c3ccc(C#N)c(C(F)(F)F)c3)C(=O)C2(C)C)cc1F [Enzalutamide] (max concentration tested 10000 nM)
percent inhibition of viability [%]
Details | 1 nM | 10 nM | 100 nM | 1000 nM | 10000 nM
DERL-7 (IL-2 2.5 ng/mL) [2] | -1.7 | -4.09 | -9.3 | -2.76 | -5
IMC-1 (IL-2 20 ng/mL) [3] | -3.38 | 0.92 | -2.2 | -1.9 | 18.3
KAI3 (IL-2 2.5 ng/mL) [4] | -6.43 | -7.59 | -3.84 | -14.2 | -5.9
KHYG-1 (IL-2 2.5 ng/mL) [5] | -6.93 | -4.23 | -3.55 | -6.97 | 4.84
NK-92 (IL-2 2.5 ng/mL) [6] | 1.65 | -8.18 | -6.81 | -3.14 | 20.8
NK-YS (IL-2 2.5 ng/mL) [7] | -6.5 | -3.69 | -3.22 | -8.67 | 5.9
NKL (IL-2 2.5 ng/mL) [8] | -2.17 | -13.2 | -14 | -9.34 | 1.3
SNK-6 (IL-2 2.5 ng/mL) [9] | 12.3 | 20.8 | -9.97 | 42.2 | 17.6
YT (IL-2 2.5 ng/mL) [10] | -1.41 | -1.46 | -3.16 | -4.82 | 3.56
[1] | -2.32 | -10.8 | -8.2 | -6.11 | -8.96
[11] | -3.9 | 0.9 | -0.41 | -2.29 | 4.21
[12] | 7.62 | -0.58 | -1.62 | 6.1 | 31.6
[13] | -10.2 | -3.87 | -13.1 | -6.47 | 3.77
[14] | -14.6 | -16.8 | -6.74 | -9.3 | -4.81

Details | drug sensitivity score
DERL-7 (IL-2 2.5 ng/mL) [16] | 0
IMC-1 (IL-2 20 ng/mL) [17] | 0.37
KAI3 (IL-2 2.5 ng/mL) [18] | 0
KHYG-1 (IL-2 2.5 ng/mL) [19] | 0
NK-92 (IL-2 2.5 ng/mL) [20] | 0.49
NK-YS (IL-2 2.5 ng/mL) [21] | 0
NKL (IL-2 2.5 ng/mL) [22] | 0
SNK-6 (IL-2 2.5 ng/mL) [23] | 4.37
YT (IL-2 2.5 ng/mL) [24] | 0
[15] | 0
[25] | 0
[26] | 2.39
[27] | 0
[28] | 0
